“Also recorded” adds a separate entry of the source.
Key:
B16 murine melanoma = test: B16 melanoma in vivo, survival of B6D2F1 mice; conditions: for T/C: mean survival treated/control
Protocol: B6D2F1 mice received i.p. inocula of B16 murine melanoma brei prepared from B16 tumors growing subcutaneously in mice (day 0). On day 1, rumored mice were treated with drugs or vehicle control; the route of drug administration and schedule were selected as appropriate for the study in question. If dosing information for agents was not available, the maximum tolerated dose (MTD) was determined in initial dose finding experiments in non-tumored mice. In a typical experiment, drugs were given at their MTD and 1/2 MTD doses i.p. on a daily×5 schedule.
The mean survival times of all groups were calculated, and results were expressed as mean survival of treated mice/mean survival of control mice (T/C)×100%. A T/C value of 150 means that the mice in the treated group lived 50% longer than those of the control group; this is sometimes referred to as the increase in life space, or ILS value.
Mice that survived for 60 days were considered long term survivors, or cures, in the B16 model. The universally accepted cut-off for activity in this model, which has been used for years by the National Cancer Institute, is T/C=125.
Statistics were performed on the data using primarily the log rank p-value test.

Lambda DNA = test: Ethidium bromide displacement, lambda DNA; format: binding; conditions: 1 μM DNA, 1.26 μM ethidium bromide, pH 7.0, read-out: FI50, Lambda DNA
Protocol: (§1) A 10× Binding solution was prepared by combining 0.93 ml of an aqueous NaCl solution (5M), 2.0 ml of an aqueous Tris HCl (500 mM) solution, 0.1 ml of an EDTA solution (500 mM) and 46.97 ml of water. The resultant solution was 93 mM in NaCl, 20 mM in Tris HCl, and 1 mM in EDTA. Stock DNA solution were prepared as follows: Poly (dG·dC)-(dG·dC) (ε254=8.4/mM; 27-7910-02), poly(dA·dT)-(dA·dT) (ε262=6.6/mM; 27-7870-02), and lambda DNA (ε260-7.0/mM; 27-4111-01) were purchased from Pharmacia. Solutions were prepared by resuspending either poly (dG·dC)-(dG·dC) or poly(dA·dT)-(dA·dT)in 1 ml of 10× DNA Binding Solution. Lambda DNA is already in solution as purchased.
(§2) Poly (dG·dC)-(dG·dC), poly(dA·dt)-(dA·dt) and lambda DNA concentrations were determined as follows: 980 μl of 10× DNA Binding Solution was pipetted into a 1 ml cuvette. A blank was run on the UV spectrophotometer. 20 μl of the DNA stock of unknown concentration was then added into the cuvette. The sample was then scanned between 210 nm to 500 nm and the absorbance recorded at 254 nm for poly(dG·dC)-(dG·dC), at 262 nm for poly(dA·dT)-(dA·dT) and at 260 nm for lambda DNA. The solution was transferred to a clean tube. This procedure was followed for three different solutions with the absorbance taken as the average of the three. The concentration of poly(dG·dC)-(dG·dC) stock was calculated to be A254 /8.4×1000 (in μM). The concentration of poly(dA·dT)-(dA·dT) stock was calculated to be A262 /6.6×1000 (in μM). The concentration of lambda DNA stock was calculated to be A260 /7.0×1000 (in μM).
(§3) The binding of the bis-naphthalimides to DNA and to synthetic polynucleotide duplexes was determined by an ethidium bromide displacement assay that measures the reduction of fluorescence when ethidium bromide is displaced from DNA (Baguley, 1981). The fluorescence intensity of a 3 ml solution containing 9.3 mM NaCl, 2 mM Tris-HCl (pH 7.0), 100 μM EDTA, 1 μM DNA (in nucleotides) and 1.26 μM ethidium bromide in a quartz cuvette was measured at the excitation (546 nm) and emission (600 nm) wavelengths on a Shimadzu RF5000U spectrofluorometer. Graded concentrations of agent were then added and the fluorescence intensity was measured. The concentration of compound required to reduce the fluorescence intensity by 50% of that of control (FI50) was determined. Therefore, the lower the FI50 the stronger the binding affinity a particular compound has for DNA.
(§4) The ability of bis-naphthalimides of the present invention and the known anti-cancer agents compound 22 and DMP840, (R,R)-2,2'[1,2-ethanediylbis[imino(1-methyl-2,1-ethanediyl)]]-bis[5-nitro- 1H benz[de]isoquinoline-1,3-(2H)dione]dimethanesulfonate, to bind to DNA and to synthetic oligonucleotide duplexes was measured using an ethidium bromide displacement assay. Ethidium bromide, a known DNA intercalator, has no fluorescence in the absence of DNA; however, fluorescence intensity increases when ethidium bromide binds to DNA. The ethidium bromide displacement assay measures the decrease in fluorescence intensity caused by DNA-bound ethidium bromide with DNA interacting agents.

[1] = system: poly (dG.dC) - poly (dG.dC); test: Ethidium bromide displacement, poly(dG.dC)-poly(dG.dC); format: binding; conditions: for Ratio (AT/GC): FI50 poly(dA.dT)-poly(dA.dT) / FI50 poly(dG.dC)-poly(dG.dC); for IC50: ethidium bromide displacement, 1 μM DNA, 1.26 μM ethidium bromide, pH 7.0, read-out: FI50, poly (dG.dC) - poly (dG.dC)
Protocol: as §1, §2, §3, §4

[2] = target: poly (dA.dT) - poly (dA.dT); test: Ethidium bromide displacement, poly(dA.dT)-poly(dA.dT); format: binding; conditions: 1 μM DNA, 1.26 μM ethidium bromide, pH 7.0, read-out: FI50, poly (dA.dT) - poly (dA.dT)
Protocol: as §1, §2, §3, §4

[3] = system: P388 murine leukemic cell line; test: In vitro growth inhibition (MTT), P388 leukemia; format: cell-based; conditions: 3 days
Excerpt: (§5) P388 murine leukemic cell line was obtained from the DCT Tumor Repository (National Cancer Institute, Frederick Cancer Research and Development, Frederick Md. 21702). HT29 Human Colon Carcinoma cell line was obtained from the American Type Culture Collection (12301 Parklawn Drive, Rockville, Md. 20852). B16 Melanoma cell line was obtained from DuPont Merck Pharmaceutical Company (Glenolden, Pa. 19036). MCF-7 Human Breast Carcinoma cell line was a gift from Dr. K. Osborne (Department of Medicine, The University of Texas Health Science Center at San Antonio, San Antonio, Tex. 78284). All cell lines were incubated at 37° C. in a humidified atmosphere of 5% CO2 -95% air. Murine B16 melanoma cell line was grown in RPMI 1640 medium supplemented with 10% heat-inactivated fetal bovine serum, 2 mM L-glutamine, 50 units/ml penicillin, 50 μg/ml streptomycin, 25 μg/ml gentamycin, 0.75% sodium bicarbonate, 10 mM HEPES buffer (pH 7.4), and 0.06 mg/ml AntiPPLO. Murine P388 leukemic and the human HT-29 colon adenocarcinoma cell lines were maintained in RPMI 1640 medium supplemented with 10% heat-inactivated fetal bovine serum. MCF-7M human breast adenocarcinoma was maintained in IMEM medium supplemented with 5% non heat-inactivated fetal bovine serum and 1 nM insulin.
(§6) Exponentially growing cells (1-2×10^3 cells, unless specified otherwise) in 0.1 ml medium were seeded on day 0 in a 96-well microtiter plate. On day 1, 0.1 ml aliquots of medium containing graded concentrations of test compounds were added in duplicate to the cell plates. After incubation at 37° C. in a humidified incubator for 3 days (P388, B16) or 6 days (HT-29, MCF-7M), the plates were centrifuged briefly and 100 μl of the growth medium was removed. Cell cultures were incubated with 50 μl of 3-(4,5-dimethylthiazol-2-yl)-2,5-diphenyl-tetrazolium bromide [MTT, 1 mg/ml in Dulbecco's phosphate buffered saline (PBS)] for 4 hr at 37° C. The resulting purple formazan precipitate was solubilized with 200 μl of 0.04N HCl in isopropyl alcohol. Absorbance was monitored in a BioRad Model 3550 Microplate Reader at a test wavelength of 570 nm and a reference wavelength of 630 nm. The absorbance was transferred to a PC 486 computer. The IC50 values were determined by a computer program (EZ-ED50) that fit all of the data to the following four-parameterlogistic equation:
(§7) Y=((Am -Ao)/(1+(X/IC50)^n))+Ao
(§8) where Am is the absorbance of control cells, Ao is the absorbance of cells in the presence of highest agent concentration, Y is the observed absorbance, X is the agent concentration, IC50 is the concentration of agent that inhibits the cell growth by 50% of control cells (based on the absorbance) and n is the slope of the curve.

[4] = system: Murine B16 melanoma cell line; test: In vitro growth inhibition (MTT), B16 melanoma; format: cell-based; conditions: MTT, 3 days
Excerpt: as §5, §6, §7, §8

[5] = system: MCF-7 Human Breast Carcinoma cell line; test: In vitro growth inhibition (MTT), MCF-7 breast carcinoma; format: cell-based; conditions: 6 days
Excerpt: as §5, §6, §7, §8

[6] = system: HT29 Human Colon Carcinoma cell line; test: In vitro growth inhibition (MTT), HT29 colon carcinoma; format: cell-based; conditions: 6 days
Excerpt: as §5, §6, §7, §8

DNA = test: Ethidium bromide displacement, DNA binding in general
Protocol: as §3
as §4, with “The ethidium bromide displacement assay measures the decrease in fluorescence intensity caused by DNA-bound ethidium bromide with DNA interacting agents.” left out

O=P1(N(CCCl)CCCl)NCCCO1 (stereo not shown) [Cytoxan]
60-Day Survivors (B16 murine melanoma; 150 mg/kg, q.d. × 5, i.p.): 0
Wt. Ch. (%) (Day 7) (B16 murine melanoma; 150 mg/kg, q.d. × 5, i.p.): -12.2%
T/C (B16 murine melanoma; 150 mg/kg, q.d. × 5, i.p.): 175%
60-Day Survivors (B16 murine melanoma; 300 mg/kg, q.d. × 1, i.p.): 0
Wt. Ch. (%) (Day 7) (B16 murine melanoma; 300 mg/kg, q.d. × 1, i.p.): -6.6%
T/C (B16 murine melanoma; 300 mg/kg, q.d. × 1, i.p.): 197%
highest effective dose (B16 murine melanoma; mouse, in vivo): 300 mg/kg

O=C1c2cccc3cc([N+](=O)[O-])cc(c23)C(=O)N1CCNCCNCCN1C(=O)c2cccc3cc([N+](=O)[O-])cc(c23)C1=O [Compound 23, 2,2'[1,2-ethanediylbis[imino(2,1-ethanediyl)]]-bis[5-nitro-1H-benz[de]isoquinoline-1,3-(2H)-dione]]
60-Day Survivors (B16 murine melanoma; 2.5 mg/kg, q.d. × 5, i.p.): 0
Wt. Ch. (%) (Day 7) (B16 murine melanoma; 2.5 mg/kg, q.d. × 5, i.p.): 0.95%
T/C (B16 murine melanoma; 2.5 mg/kg, q.d. × 5, i.p.): 162%

O=C1c2cccc3cc([N+](=O)[O-])cc(c23)C(=O)N1CCNCC[S+]([O-])CCN1C(=O)c2cccc3cc([N+](=O)[O-])cc(c23)C1=O (stereo not shown) [Compound 12]
IC50 (Lambda DNA): 169 nM
Ratio (AT/GC) [1]: 51.06
IC50 [1]: 125 nM
IC50 [2]: 6380 nM
IC50 ([3]; Mus musculus, P388, 72 h): 9 nM
IC50 [4]: 6.3 nM
IC50 [5]: 1.6 nM
IC50 [6]: 1.7 nM

O=C1c2cccc3cc([N+](=O)[O-])cc(c23)C(=O)N1CCNCCSCCN1C(=O)c2cccc3cc([N+](=O)[O-])cc(c23)C1=O [Compound 10, 5-[2-(3-Nitronaphthalene-1,8-dicarboximido)ethylamino]-1-(3-nitronaphthalene-1,8-dicarboximido)-3-thiopentane]
IC50 (Lambda DNA): 7370 nM
Ratio (AT/GC) [1]: 22.3
IC50 [1]: 770 nM
IC50 [2]: 17200 nM
IC50 ([3]; Mus musculus, P388, 72 h): 56.5 nM
IC50 ([4]; Mus musculus, B16, 72 h): 33 nM
IC50 ([5]; Homo sapiens, MCF7, 144 h): 9 nM

O=C1c2cccc3cc([N+](=O)[O-])cc(c23)C(=O)N1CCNCCS(=O)(=O)CCN1C(=O)c2cccc3cc([N+](=O)[O-])cc(c23)C1=O [Compound 14]
IC50 (Lambda DNA): 24200 nM
Ratio (AT/GC) [1]: 64.38
IC50 [1]: 672 nM
IC50 [2]: 43300 nM
IC50 ([3]; Mus musculus, P388, 72 h): 27 nM
IC50 [4]: 86 nM
IC50 [5]: 132 nM
IC50 ([6]; Homo sapiens, HT-29, 144 h): 44 nM

O=C1c2cccc3cc([N+](=O)[O-])cc(c23)C(=O)N1CCNCCNCCN1C(=O)c2cccc3cc([N+](=O)[O-])cc(c23)C1=O [Compound 22, 2,2'[1,2-ethanediylbis[imino(2,1-ethanediyl)]]-bis[5-nitro-1H-benz[de]isoquinoline-1,3-(2H)-dione]dimethanesulfonate]
Ratio (AT/GC) [1]: 16.5
60-Day Survivors (B16 murine melanoma; 2.5 mg/kg, q.d. × 5, i.p.): 0
Wt. Ch. (%) (Day 7) (B16 murine melanoma; 2.5 mg/kg, q.d. × 5, i.p.): -0.17%
T/C (B16 murine melanoma; 2.5 mg/kg, q.d. × 5, i.p.): 141%

O=C1c2cccc3cc([N+](=O)[O-])cc(c23)C(=O)N1CCNCCS(=O)(=O)CCN1C(=O)c2cccc3cc([N+](=O)[O-])cc(c23)C1=O [Compound 15, 5-[2-(3-Nitronaphthalene-1,8-dicarboximido)ethylamino]-1-(3-nitronaphthalene-1,8-dicarboximido)-3-sulfonylpentane hydromethanesulfonate]
IC50 (Lambda DNA): 1030 nM
Ratio (AT/GC) [1]: 144.4
IC50 [1]: 118 nM
IC50 [2]: 17100 nM
IC50 [3]: 29.9 nM
IC50 [4]: 34 nM
IC50 [5]: 36 nM
IC50 [6]: 22 nM

O=C1c2cccc3cc([N+](=O)[O-])cc(c23)C(=O)N1CCNCC[S+]([O-])CCN1C(=O)c2cccc3cc([N+](=O)[O-])cc(c23)C1=O (stereo not shown) [Compound 13]
IC50 (Lambda DNA): 180 nM
Ratio (AT/GC) [1]: 212.6
IC50 [1]: 18 nM
IC50 [2]: 3850 nM
IC50 [3]: < 5 nM
IC50 [4]: 1.6 nM
IC50 [5]: < 0.1 nM
IC50 [6]: 0.2 nM

O=C1c2cccc3cc([N+](=O)[O-])cc(c23)C(=O)N1CCNCCOCCN1C(=O)c2cccc3cc([N+](=O)[O-])cc(c23)C1=O [Compound 6]
DNA binding (in words) (DNA): dose-dependent decrease in fluorescence intensity
60-Day Survivors (B16 murine melanoma; 15 mg/kg, q.d. × 5, i.p.): 0
Wt. Ch. (%) (Day 7) (B16 murine melanoma; 15 mg/kg, q.d. × 5, i.p.): -7.4%
T/C (B16 murine melanoma; 15 mg/kg, q.d. × 5, i.p.): 210%
60-Day Survivors (B16 murine melanoma; 30 mg/kg, q.d. × 5, i.p.): 0
Wt. Ch. (%) (Day 7) (B16 murine melanoma; 30 mg/kg, q.d. × 5, i.p.): -16.4%
T/C (B16 murine melanoma; 30 mg/kg, q.d. × 5, i.p.): 233%
activity against B16 melanoma in vivo (in words) (B16 murine melanoma; mouse, in vivo): potent activity against B16 melanoma in vivo; also recorded: remarkable activity; also recorded: more active in this model than DMP840, compounds 22 and 23, and cytoxan; also recorded: more effective against B16 melanoma compared with DMP840
